Molecules are shown by their SMILES.

As usually defined, the Ki is the equilibrium dissociation constant of an inhibitor or competing ligand from its target.

Assay [1] has as its target Rhesus PDE2A3 (Macaca mulatta, UniProt B3VTJ2). Put plainly: PDE2 fluorescence polarization (IMAP FP) assay, rhesus PDE2A3. As to conditions: Lab B, read-out: Rhesus PDE2 Ki (nM) Lab B. The assay is classed as biochemical, rhesus macaque. The method, then: A Labcyte Echo 555 (Labcyte, Sunnyvale, Calif.) is used to dispense 200 nL from each well of the titration plate to the 384 well assay plate. Ten microliters of a solution of enzyme (1/2000 final dilution from aliquots; sufficient to produce 20% substrate conversion) was added to the assay plate. Next 10 uL of a separate solution of the substrate FAM-labeled cAMP (50 nM final concentration product # R7506 from Molecular Devices) and the activator cGMP (1 uM final concentration), prepared in the assay buffer (10 mM Tris HCl, pH 7.2, 10 mM MgCl2, 0.05% NaN3 0.01% Tween-20, and 1 mM DTT) was added to the assay plate and shaken to mix. The reaction is allowed to proceed at room temperature for 60 minutes. A binding solution is then made from the kit components, comprised of 80% Solution A, 20% Solution B and binding reagent at a volume of 1/600 the total binding solution. The enzymatic reaction is stopped by addition of 60 μL of the binding solution to each well of the assay plates and the plates are sealed and shaken for 30 seconds. The plate was incubated at room temperature for at least one hour prior to determining the fluorescence polarization (FP). The parallel and perpendicular fluorescence of each well of the plate was measured using a Tecan Genios Pro plate reader (Tecan, Switzerland) or Perkin Elmer EnVision™ plate reader (Waltham, Mass.). Fluorescence polarization (mP) was calculated from the parallel (S) and perpendicular (P) fluorescence of each sample well and the analogous values for the median control well, containing only substrate (So and Po), using the following equation: Polarization (mP)=1000*(S/So−P/Po)/(S/So+P/Po).
Dose-inhibition profiles for each compound were characterized by fitting the mP data to a four-parameter equation given below.
An apparent (KM) for FAM-labeled cAMP of ˜10 uM was used.

Assay [2] has as its target human PDE2A1 (Homo sapiens (Human), UniProt O00408). The assay can be described thus: PDE selectivity IMAP FP assay, human PDE2A1. The assay is classed as biochemical. The following applies: Human PDE2; Lab B; read-out: Human PDE2 Ki (nM) Lab B. An outline of the steps:
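IMAP fluorescence polarization assay; PDE2 substrate 50 nM FAM-cAMP containing 1000 nM cGMP, enzyme diluted for 20% substrate conversion, in 10 mM Tris HCl pH 7.2, 10 mM MgCl2, 1 mM DTT. Reaction 60 min at room temperature, stopped with IMAP binding solution; polarization read after 1 h. Ki reported.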

human PDE2A1, sequence (O00408 other isoform, or with tags, fused parts or gaps): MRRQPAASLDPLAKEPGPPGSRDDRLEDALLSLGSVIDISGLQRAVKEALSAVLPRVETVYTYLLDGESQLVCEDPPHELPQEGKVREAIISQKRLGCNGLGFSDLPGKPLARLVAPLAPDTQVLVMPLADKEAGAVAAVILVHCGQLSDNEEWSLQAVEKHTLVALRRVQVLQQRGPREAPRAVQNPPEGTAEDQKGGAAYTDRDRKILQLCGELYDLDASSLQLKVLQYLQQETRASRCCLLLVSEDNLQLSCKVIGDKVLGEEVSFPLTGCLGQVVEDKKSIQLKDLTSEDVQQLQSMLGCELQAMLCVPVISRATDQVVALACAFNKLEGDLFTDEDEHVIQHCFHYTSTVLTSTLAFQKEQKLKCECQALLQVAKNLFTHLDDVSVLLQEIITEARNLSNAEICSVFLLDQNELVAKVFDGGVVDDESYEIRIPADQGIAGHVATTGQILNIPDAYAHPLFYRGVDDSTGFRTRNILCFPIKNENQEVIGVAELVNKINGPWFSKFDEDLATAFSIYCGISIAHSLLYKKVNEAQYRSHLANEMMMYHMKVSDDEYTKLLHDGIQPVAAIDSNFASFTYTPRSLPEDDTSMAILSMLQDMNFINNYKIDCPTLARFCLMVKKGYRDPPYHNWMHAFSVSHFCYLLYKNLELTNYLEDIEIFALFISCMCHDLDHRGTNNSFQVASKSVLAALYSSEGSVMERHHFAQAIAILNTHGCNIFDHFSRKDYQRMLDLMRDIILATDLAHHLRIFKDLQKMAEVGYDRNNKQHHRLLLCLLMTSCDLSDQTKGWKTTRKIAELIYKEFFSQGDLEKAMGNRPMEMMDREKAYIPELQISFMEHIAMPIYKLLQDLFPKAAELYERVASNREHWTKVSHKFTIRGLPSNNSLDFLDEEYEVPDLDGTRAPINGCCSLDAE
Rhesus PDE2A3, sequence (B3VTJ2 1-941): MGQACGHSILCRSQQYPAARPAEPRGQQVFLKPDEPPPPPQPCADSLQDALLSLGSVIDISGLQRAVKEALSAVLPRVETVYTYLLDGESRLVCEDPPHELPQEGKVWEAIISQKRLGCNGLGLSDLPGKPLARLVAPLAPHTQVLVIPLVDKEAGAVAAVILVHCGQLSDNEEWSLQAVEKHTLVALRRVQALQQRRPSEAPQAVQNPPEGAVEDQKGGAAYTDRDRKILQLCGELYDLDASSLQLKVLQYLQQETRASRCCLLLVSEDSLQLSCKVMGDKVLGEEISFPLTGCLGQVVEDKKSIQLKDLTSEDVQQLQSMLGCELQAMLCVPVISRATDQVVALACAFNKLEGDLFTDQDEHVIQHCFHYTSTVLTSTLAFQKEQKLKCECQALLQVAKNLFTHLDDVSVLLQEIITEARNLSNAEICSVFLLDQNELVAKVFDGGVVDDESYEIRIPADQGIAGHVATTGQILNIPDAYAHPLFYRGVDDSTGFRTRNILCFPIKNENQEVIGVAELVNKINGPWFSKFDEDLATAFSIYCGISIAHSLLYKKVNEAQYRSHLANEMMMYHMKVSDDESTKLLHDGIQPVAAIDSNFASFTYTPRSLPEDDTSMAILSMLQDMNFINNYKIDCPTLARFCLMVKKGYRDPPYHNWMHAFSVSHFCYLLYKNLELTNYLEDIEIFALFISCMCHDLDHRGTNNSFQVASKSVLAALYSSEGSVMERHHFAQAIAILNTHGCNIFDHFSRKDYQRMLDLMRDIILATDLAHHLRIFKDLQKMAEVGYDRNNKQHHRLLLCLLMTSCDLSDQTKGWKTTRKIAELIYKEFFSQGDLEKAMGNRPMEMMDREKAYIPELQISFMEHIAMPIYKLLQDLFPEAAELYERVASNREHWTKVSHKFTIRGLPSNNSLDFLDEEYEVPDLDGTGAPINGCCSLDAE

As for `CC(C)(C)C(c1ccc(C(F)(F)F)c(F)c1)n1nc(CO)c2c(=O)[nH]c(O)nc21` (single isomer, unassigned) [Example 25], in assay [1], the inhibitory constant (Ki) turned out to be 238 nM. Turning to `O=c1[nH]c(O)nc2c1c(CC(F)(F)F)nn2C(c1ccc(OC(F)(F)F)cc1)C1CC1` (single isomer, unassigned) [Example 243, (S)- or (R)-1-(Cyclopropyl(4-(trifluoromethoxy)phenyl)methyl)-6-hydroxy-3-(2,2,2-trifluoroelhyl)-1H-pyrazolo[3,4-d]pyrimidin-4(5H)-one], in assay [1], the inhibition constant (Ki) was found to be 191 nM. On to `O=c1[nH]c(O)nc2c1c(C(F)F)nn2C(c1ccc(C(F)(F)F)cc1)C1CC1` (single isomer, unassigned) [Example 280, (S)- or (R)-1-(Cyclopropyl(4-(trifluoromethyl)phenyl)methyl)-3-(difluoromethyl)-6-hydroxy-1H-pyrazolo[3,4-d]pyrimidin-4(5H)-one], for which, in assay [1], the inhibition constant (Ki) worked out at 85 nM. For the compound `CC(C)C(c1ccc(C(F)(F)F)c(F)c1)n1nc(CO)c2c(=O)[nH]c(O)nc21` (single isomer, unassigned) [Example 28, (S)- or (R)-1-(1-(3-F1uoro-4-(trifluoromethyl)phenyl)-2-methylpropyl)-6-hydroxy-3-(hydroxymethyl)-1H-pyrazolo[3,4-d]pyrimidin-4(5H)-one], the Ki in assay [1] is 117 nM. Same read-out and setting: next, `C[C@H](c1ccc(C(F)(F)F)c(F)c1)n1nc(CF)c2c(=O)[nH]c(O)nc21` (mixture of isomers) [Example 35, (R)- and (S)-1-(1-(3-Fluoro-4-(trifluoromethyl)phenyl)ethyl)-3-(fluoromethyl)-6-hydroxy-H-pyrazolo[3,4-d]pyrimidin-4(5H)-one]: 209 nM. For `CC(C)C(c1ccc(C(F)(F)F)cc1)n1nc(C(F)(F)F)c2c(=O)[nH]c(O)nc21` (single isomer, unassigned) [Example 334, (S)- or (R)-6-Hydroxy-1-(2-methyl-1-(4-(trifluoromethyl)phenyl)propyl)-3-(trifluoromethyl)-1H-pyrazolo[3,4-d]pyrimidin-4(5H)-one], the Ki in assay [2] turned out to be 2.3 nM.

In the case of `CC(c1ccc(C2CC2)cc1)n1nc(C(F)F)c2c(=O)[nH]c(O)nc21` (single isomer, unassigned) [Example 276, (S)- or (R)-1-(1-(4-Cyclopropylphenyl)ethyl)-3-(difluoromethyl)-6-hydroxy-1H-pyrazolo[3,4-d]pyrimidin-4(5H)-one], the Ki in assay [2] turned out to be 3.6 nM. Turning to `CC(C)(C)C(c1ccc(C(F)(F)F)cc1)n1nc(C(F)(F)F)c2c(=O)[nH]c(O)nc21` (single isomer, unassigned) [Example 337, (R)- or (S)-1-(2,2-Dimethyl-1-(4-(trifluoromethyl)phenyl)propyl)-6-hydroxy-3-(trifluoromethyl)-1H-pyrazolo[3,4-d]pyrimidin-4(5H)-one], the Ki in assay [2] was 2360 nM. On the same count and under the same terms, as for `CC(c1ccc(OC(F)F)c(F)c1)n1nc(C(F)(F)F)c2c(=O)[nH]c(O)nc21` (single isomer, unassigned) [Example 324, (S)- or (R)-1-(1-(4-(Difluoromethoxy)-3-fluorophenyl)ethyl)-6-hydroxy-3-(trifluoromethyl)-1H-pyrazolo[3,4-d]pyrimidin-4(5H)-one], the figure is 6.8 nM; as for `CN(C)c1nc2c(c(CO)nn2C(c2ccc(C(F)F)c(F)c2)C2CC2)c(=O)[nH]1` (single isomer, unassigned) [Example 153, (S)- or (R)-1-(Cyclopropyl(4-(difluoromethyl)-3-fluorophenyl)methyl)-6-(dimethylamino)-3-(hydroxymethyl)-1H-pyrazolo[3,4-d]pyrimidin-4(5H)-one], 3 nM; as for `CC(c1ccc(C(C)(F)F)cc1)n1nc(C(F)(F)F)c2c(=O)[nH]c(O)nc21` (single isomer, unassigned) [Example 317, (R)- or (S)-1-(1-(4-(1,1-Difluoroethyl)phenyl)ethyl)-6-hydroxy-3-(trifluoromethyl)-1H-pyrazolo[3,4-d]pyrimidin-4(5H)-one], 326 nM. In the case of `CC1(C(c2ccc(C(F)(F)F)c(F)c2)n2nc(CO)c3c(=O)[nH]c(O)nc32)CC1` (single isomer, unassigned) [Example 16], in assay [2], the inhibition constant (Ki) was determined as 702 nM. On the same count and under the same terms, as for `CC(c1ccc(CC(F)(F)F)cc1)n1nc(CO)c2c(=O)[nH]c(N(C)C)nc21` (single isomer, unassigned) [Example 70, (R)- or (S)-6-(Dimethylamino)-3-(hydroxymethyl)-1-(1-(4-(2,2,2-trifluoroethyl)phenyl)ethyl)-1H-pvrazolo[3,4-d]pyrimidin-4(5H)-one], the figure is 4.1 nM; as for `CC1(C(c2ccc(C(F)(F)F)c(F)c2)n2nc(CC(F)(F)F)c3c(=O)[nH]c(O)nc32)CC1` (single isomer, unassigned) [Example 248, (R)- or (S)-1-((3-Fluoro-4-(trifluoromethyl)phenyl)(1-methylcyclopropyl)methyl)-6-hydroxy-3-(2,2,2-trifluoroethyl)-1H-pyrazolo[3,4-d]pyrimidin-4(5H)-one], 47 nM; as for `CC1(C(c2ccc(C(F)(F)F)c(F)c2)n2nc(CO)c3c(=O)[nH]c(O)nc32)CC1` (single isomer, unassigned) [Example 17], 55 nM.

As for `CCC(c1ccc(C(F)(F)F)cc1)n1nc(C(F)(F)F)c2c(=O)[nH]c(O)nc21` (single isomer, unassigned) [Example 332, (S)- or (R)-6-hydroxy-3-(trifluoromethyl)-1-(1-(4-(trifluoromethyl)phenyl)propyl)-1H-pyrazolo[3,4-d]pyrimidin-4(5H)-one], the inhibitory constant (Ki) in assay [2] was found to be 3.3 nM.

For the compound `C[C@@H](c1ccc(C(F)(F)F)cc1)n1nc(CO)c2c(=O)[nH]c(NCCCCl)nc21` [Example 155, 6-[(3-Chloropropyl)amino]-3-(hydroxymethyl)-1-{(1S)-1-[4-(trifluoromethyl)-phenyl]ethyl}-1,5-dihydro-4H-pyrazolo[3,4-d]pyrimidin-4-one], in assay [2], the Ki was found to be 3.8 nM. Same read-out and setting: as for `CC(C)(C)C(c1ccc(C(F)(F)F)c(F)c1)n1nc(CC(F)(F)F)c2c(=O)[nH]c(O)nc21` (single isomer, unassigned) [Example 247, (S)- or (R)-1-(1-(3-Fluoro-4-(trifluoromethyl)phenyl)-2,2-dimethylpropyl)-6-hydroxy-3-(2,2,2-trifluoroethyl)-1H-pyrazolo[3,4-d]pyrimidin-4(5H)-one], the figure is greater than 2960 nM; as for `CC(c1ccc(CC(F)F)cc1)n1nc(C(F)(F)F)c2c(=O)[nH]c(O)nc21` (single isomer, unassigned) [Example 319, (R)- or (S)-1-(1-(4-(2,2-Difluoroethyl)phenyl)ethyl)-6-hydroxy-3-(trifluoromethyl)-1H-pyrazolo[3,4-d]pyrimidin-4(5H)-one], 590 nM. In the case of `CC(c1ccc(C(C)(F)F)cc1)n1nc(C(F)(F)F)c2c(=O)[nH]c(O)nc21` (single isomer, unassigned) [Example 318, (S)- or (R)-1-(1-(4-(1,1-Difluoroethyl)phenyl)ethyl)-6-hydroxy-3-(trifluoromethyl)-1H-pyrazolo[3,4-d]pyrimidin-4(5H)-one], the Ki in assay [2] worked out at 3 nM. Same read-out and setting: as for `CCC(c1ccc(CC(F)(F)F)cc1)n1nc(CO)c2c(=O)[nH]c(N(C)C)nc21` (single isomer, unassigned) [Example 99, (S)- or (R)-6-(Dimethyiamino)-3-(hydroxymethyl)-1-(1-(4-(2,2,2-trifluoroethyl)phenyl)propyl)-1H-pyrazolo[3,4-d]pyrimidin-4(5H)-one], the figure is 0.31 nM.

Source of the values: US10174037B2, “Dihydropyrazolopyrimidinone compounds as PDE2 inhibitors” (Merck Sharp & Dohme Corp., priority 2015, dated 2019).
